Data as given in article PMC5653977 (EMBO Molecular Medicine, 2017).

How the values were obtained:
[1] = design: method as in Wu et al, 2012; conditions: ref Wu et al, 2012; cited from earlier work
[2] = design: method as in Zhou et al, 2011; Rimmele et al, 2013; conditions: acute administration; ref Zhou et al, 2011; Rimmele et al, 2013; cited from earlier work
ERBB4_1-685 dimers = target: T1, ERBB4_1-685 dimers (Homo sapiens, UniProt Q15303); experiment: Truncated ERBB4 (amino acids 1-685) dimerization split TEV assay; conditions: PC12 cells, 10 ng/ml EGFld
T1 sequence (Q15303 26-685) 1: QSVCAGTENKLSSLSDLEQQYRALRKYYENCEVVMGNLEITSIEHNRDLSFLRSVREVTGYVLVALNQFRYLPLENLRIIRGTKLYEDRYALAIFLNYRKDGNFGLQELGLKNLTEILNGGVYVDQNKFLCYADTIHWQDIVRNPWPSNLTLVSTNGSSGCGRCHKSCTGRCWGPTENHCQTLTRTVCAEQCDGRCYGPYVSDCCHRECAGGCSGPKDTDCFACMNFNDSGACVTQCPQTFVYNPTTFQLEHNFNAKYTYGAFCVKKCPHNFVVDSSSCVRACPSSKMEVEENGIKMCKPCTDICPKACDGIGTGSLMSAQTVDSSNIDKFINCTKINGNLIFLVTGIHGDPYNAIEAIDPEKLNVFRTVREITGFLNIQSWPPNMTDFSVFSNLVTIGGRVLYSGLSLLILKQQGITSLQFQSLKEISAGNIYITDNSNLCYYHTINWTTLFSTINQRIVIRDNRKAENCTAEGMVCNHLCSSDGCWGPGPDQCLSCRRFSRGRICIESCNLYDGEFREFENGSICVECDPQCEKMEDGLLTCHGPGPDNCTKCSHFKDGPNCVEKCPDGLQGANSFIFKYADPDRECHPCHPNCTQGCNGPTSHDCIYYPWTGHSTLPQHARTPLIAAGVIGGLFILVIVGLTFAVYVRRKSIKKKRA
T1 sequence (Q15303 26-685) 2: T1 sequence (Q15303 26-685) 1
Method: Individually re‐screened candidates were validated using a dose–response assay. PC12 cells were batch‐transfected as described in the section “Transfection of cells”, manually plated, and incubated for 24 h at 37°C and 5% CO2. Candidate small molecules were prepared in a series of dilutions using DMSO as diluent and ranging from 0.0001 to 100 μM at final concentrations, thus covering at least five orders of magnitude. Candidate dilutions were added, followed by the addition of 10,000 Nrg1‐expressing cells in 100 μl volume 30 min later. Cells were lysed in 40 μl Passive Lysis Buffer and analyzed in a Dual Luciferase Assay. Data were analyzed in Excel and GraphPad Prism. For single‐culture assays that used EGFld as stimulus, 100 μl assay medium containing EGFld (f.c. 10 ng/ml) was administered. […] Dose–response assays were run in six replicates per concentration and repeated at least two times. Data are shown as mean, and error bars represent SEM.

[3] = design: method as in Zhou et al, 2011; conditions: ref Zhou et al, 2011; cited from earlier work
PC12 cells = experiment: Renilla luciferase readings as toxicity control in dose-response assay; format: cell-based; conditions: dose-response co-culture assay, Nrg1 type I β1a, 24 h
Text: For our HTS‐compatible split TEV assay approach, human full‐length ERBB4‐Cyt1 was fused to the NTEV fragment, a TEV protease cleavage site (tevS) and the artificial co‐transcriptional activator Gal4‐VP16 (ERBB4‐NTEV‐tevS‐GV); human PIK3R1 was fused to the CTEV fragment (PIK3R1‐CTEV) (Fig 1A). Upon ERBB4 activation, PIK3R1 is recruited to the receptor resulting in a reconstituted protease activity that cleaves off GV. In turn, released GV translocates to the nucleus and binds to upstream activating sequences (UAS) to activate the transcription of a firefly luciferase reporter gene (Fig 1A). A constitutively expressed Renilla luciferase driven under the control of the human thymidine kinase (TK) promoter was used as control to address off‐target effects related to toxicity.

[4] = test system: pyramidal neurons of the prefrontal cortex; experiment: Spontaneous inhibitory postsynaptic currents (sIPSCs) in acute prefrontal cortex slices; format: cell-based, mouse; conditions: 10 μM, bath application
Method: 300‐μm‐thick transverse slices comprising the medial prefrontal cortex (mPFC) area were prepared from 7‐ to 8‐week‐old C57Bl/6 mice as described previously (Teng et al, 2013; Agarwal et al, 2014). All recordings were performed in cortical layer V projection neurons. The bath solution consisted of oxygenated artificial cerebrospinal fluid (ACSF) containing NaCl 126 mM, KCl 3 mM, NaH2PO4 1.25 mM, MgSO4 1 mM, NaHCO3 26 mM, CaCl2 2 mM, glucose 10 mM, and the pH 7.2 adjusted with NaOH. Spontaneous GABAergic inhibitory postsynaptic currents (sIPSC) and evoked GABAergic inhibitory postsynaptic currents (eIPSC) were recorded at a holding potential of −70 mV in the presence of 6‐cyano‐7‐nitroquinoxaline‐2,3‐dione (CNQX, 10 μM) and DL‐2‐amino‐5‐phosphonovaleric acid (D‐APV, 50 μM). Glass pipettes were filled with the solution containing: KCl 140 mM, MgCl2 2 mM, CaCl2 1 mM, Na2GTP 0.5 mM, Na2ATP 4 mM, EGTA 10 mM, HEPES 10 mM. Patches with a series resistance of > 25 MΩ, a membrane resistance of < 0.8 GΩ, or leak currents of > 150 pA were excluded. Biphasic rectangular electric pulses (10 ms, 100–300 μA) were applied to layer I of the prelimbic area of mPFC through another glass pipette filled with ACSF. Synaptic currents were acquired at 20 kHz and filtered at 6 kHz, with a Digidata 1440 ADC‐converter coupled to a Multiclamp 700B amplifier (Molecular Devices, USA). Data acquisition was performed using pClamp10 software (Molecular Devices). MiniAnalysis 6.0.9 (Synaptosoft Inc., Decatur, USA) and pClamp10.1 were used for amplitude and frequency analysis of sIPSCs and eIPSCs, respectively. Paired Student's t‐test was used for statistical analysis.

Nrg1-tg and wt mice = experiment: Tail suspension test; format: in vivo, mouse; conditions: 50 mg/kg s.c. daily
Method: For behavioral testing, age‐matched male mice (8–16 weeks) on C57Bl/6 background that constitutively overexpress the 2xHA‐tagged Nrg1 type III β1a isoform (Nrg1‐tg) under the control of the mouse Thy1.2 promoter (Velanac et al, 2012) and their wild‐type (wt) littermates as controls were used. Animals were group‐housed in the same ventilated sound‐attenuated rooms under a 12‐h light/12‐h dark schedule (lights on at 8:00 am) at an ambient temperature of 21°C with food and water available ad libitum. One week prior to experiments, mice were separated into single cages and habituated to the experimental rooms. To minimize the influence of the circadian rhythm on drug actions, the treatment groups were analyzed at balanced time points during the light phase. […] All animal experiments were conducted in accordance with NIH principles of laboratory animal care and were approved by the Government of Lower Saxony, Germany, in accordance with the German Animal Protection Law.
Treatment was continued throughout the behavioral analysis period. To avoid injection‐induced stress prior to behavioral testing, mice were injected in the afternoon, after the entire cohort has completed the behavioral paradigm.

In the case of `CC(=O)S[C@@H]1CC2=CC(=O)CC[C@]2(C)[C@H]2CC[C@@]3(C)[C@@H](CC[C@@]34CCC(=O)O4)[C@H]12` [Spironolactone], the “motivation and curiosity in mice” value [1] is listed as “increase motivation and curiosity”, the “memory retrieval in healthy human volunteers” value [2] is listed as “reduced memory retrieval” and the “inhibitory effect on dimerization of truncated ERBB4” value (ERBB4_1-685 dimers) is listed as “no inhibitory effect”. The “recent fear memory formation in mice” value [3] was “impaired recent fear memory formation”, the “toxic effects (reduced Renilla luciferase readings)” value (PC12 cells) was “marginal toxic effects at higher concentrations” and the sIPSC amplitude [4] was “increase”. The sIPSC frequency [4] was “increase” and the “time active in the tail suspension test (genotype effect)” value (Nrg1-tg and wt mice) was “independent of treatment”.
